These results are taken from PMC3972617 (Xenobiotica; the fate of foreign compounds in biological …, 2013).

SMILES strings stand for the structures.

Data set [1] relates to primary mouse hepatocytes. Briefly: LDH release cytotoxicity in cultured primary mouse hepatocytes. The settings on record: 24 h exposure. Format: cell-based.
A short description of data set [2]: Pharmacokinetic profiling of Inhibitor-1 in mice. Type of data set: in vivo. The settings on record: for AUC(0-t): AUC0–24 h.
Data set [3] concerns ketoprofen-induced small intestinal injury. As to the kind of experiment: Ketoprofen-induced enteropathy in mice. The settings on record: Inh-1 10 μg/mouse po bid for 2 days before ketoprofen 100 mg/kg ip; 18 h. Type of data set: in vivo, male C57BL/6J mice.
Data set [4] concerns diclofenac (DCF)-induced small intestinal injury. Briefly: Diclofenac-induced enteropathy in mice. Type of data set: in vivo, male C57BL/6J mice.
For data set [5] the test system is unchanged. The settings on record: Inh-1 given prior to DCF (60 mg/kg, ip); ref LoGuidice et al., 2012; cited from earlier work.
Data set [6] has as its system indomethacin-induced small intestinal injury. Briefly: Indomethacin-induced enteropathy in mice.
Setting [7] is: C57BL/6J, mouse, plasma, iv, 3 mg/kg, Inh-1 3 mg/kg iv, vehicle pretreatment.
The mark [8] stands for this setting: C57BL/6J, mouse, plasma, po, 3 mg/kg, Inh-1 3 mg/kg po, vehicle pretreatment.
[9] abbreviates: single oral dose Inh-1 10 μg/mouse 3 h after DCF 60 mg/kg ip, 18 h after DCF.

Consider `O=C(O)Cc1ccccc1Nc1c(Cl)cccc1Cl` [DCF, diclofenac, reference compound], for which the “LDH release from the cells” value in data set [1] (DCF 1000 μM) is listed as “significant increases in LDH release”.
On to `CCOc1ccc(NC(=S)N(CCO)Cc2cc3cc(C)cc(C)c3[nH]c2=O)cc1` [Inh-1, 1-((6,8-dimethyl-2-oxo-1,2-dihydroquinolin-3-yl)methyl)-3-(4-ethoxyphenyl)-1-(2-hydroxyethyl)thiourea], for which, in data set [2] (setting [7]), the AUC(0-t) turned out to be 4380 ng·h/mL and the highest concentration (Cmax) amounted to 7190 ng/mL. In addition, the half-life in data set [2] (C57BL/6J, mouse, plasma, iv, 3 mg/kg, T1/2, Inh-1 3 mg/kg iv, vehicle pretreatment) was 42 min. Moreover, in data set [2] (setting [8]), the AUC(0-t) worked out at 925 ng·h/mL and the maximum concentration (Cmax) amounted to 513 ng/mL. Also, the time to peak (Tmax) in data set [2] (C57BL/6J, mouse, plasma, po, 3 mg/kg, Tmax, Inh-1 3 mg/kg po, vehicle pretreatment) was determined as 30 min. For the same compound, the “time at which maximal plasma levels were attained” value in data set [2] (single oral administration of Inh-1 3 mg/kg) turned out to be 30 min. Also, in data set [3], the “co-treated mice with an ulcer (one small ulcer)” value is 1/11. Further, the “protection against DCF-induced enteropathy, post-treatment” value in data set [4] (Inh-1 administered 3-h post-DCF (60 mg/kg, ip)) is “partial protection”. In data set [4] (setting [9]), the “average area of total ulcers per mouse versus DCF alone” value is given as “not significantly different” and the “reduction of average ulcer number per mouse versus DCF controls” value is recorded as 71%. In data set [1] (Inh-1 100 μM alone), the “LDH release versus solvent controls” value is “did not significantly increase LDH release”. The “effect on DCF concentration-toxic response curve (LDH release)” value in data set [1] (Inh-1 100 μM with DCF 500 or 1000 μM) is reported as “did not alter the concentration-toxic response curve”. Besides, the “protection against DCF-induced enteropathy, pretreatment” value in data set [5] was “complete protection”. Moreover, the “decrease of total area of indomethacin-induced intestinal injury” value in data set [6] (Inh-1 10 μg/mouse po bid for 2 days, last dose 1 h before indomethacin 10 mg/kg ip, 18 h post-dose) is reported as 89%. Further, in data set [6] (Inh-1/indomethacin co-treated mice, 1 mM nitroblue tetrazolium incubation), the “NBT staining of jejunal mucosa (oxidoreductive stress)” value was “remained unstained”.
As to `COc1ccc2c(c1)c(CC(=O)O)c(C)n2C(=O)c1ccc(Cl)cc1` [indomethacin, Indomethacin, reference compound], the “small intestinal mucosal ulceration” value in data set [6] (single dose of indomethacin alone 10 mg/kg ip, 18 h, majority of lesions in quartiles 2 and 3) is “marked mucosal ulceration”.
